Measured values from patent US6653290B2, “Tumor proliferation inhibitors” (Bristol-Myers Squibb Company, priority 2000, dated 2003).

Assays:
murine P388 cell line = assay: Cell-based cytotoxicity (XTT proliferation inhibition) against murine P388 cell line; details: Mus musculus, P388 cells, 72 h incubation, absorbance at 450 nm, read-out: IC50 (drug concentration required to inhibit cell proliferation to 50% of untreated control cells)
Description: The proliferation inhibition activity against murine P388 cell line was measured as follows. Evaluation of a soluble tetrazolium/formazan assay for cell growth and drug sensitivity in culture, using human and other tumor cell lines, was done according to the procedure described in Cancer Res. 1988, 48, 4827-4833. Cells were plated at 4000 cells/well in 96 well microtiter plates and 24 h later drugs were added and serially diluted. The cells were incubated at 37° C. for 72 h, at which time a tetrazolium dye, XTT, containing phenazine methosulfate was added. A dehydrogenase enzyme in live cells reduced the XTT to a form that absorbs light at 450 nm, which could be quantitated spectrophotometrically. The greater the absorbance the greater the number of live cells. The results are expressed as an IC50, which is the drug concentration required to inhibit cell proliferation (i.e., absorbance at 450 nm) to 50% of that of untreated control cells.

[1] = target: T1, purified human topoisomerase I (Homo sapiens, UniProt P11387); assay: Topoisomerase I activity (in vitro): compound-induced, topoisomerase I-mediated single strand breaks in PM2 DNA; assay type: biochemical; details: purified human topoisomerase I (Topogen), 30 minutes at 37° C., read-out: EC50 (median effective concentration for inducing topoisomerase I-mediated single strand breaks in DNA)
T1 construct: purchased Topogen
T1 sequence (P11387 1-765): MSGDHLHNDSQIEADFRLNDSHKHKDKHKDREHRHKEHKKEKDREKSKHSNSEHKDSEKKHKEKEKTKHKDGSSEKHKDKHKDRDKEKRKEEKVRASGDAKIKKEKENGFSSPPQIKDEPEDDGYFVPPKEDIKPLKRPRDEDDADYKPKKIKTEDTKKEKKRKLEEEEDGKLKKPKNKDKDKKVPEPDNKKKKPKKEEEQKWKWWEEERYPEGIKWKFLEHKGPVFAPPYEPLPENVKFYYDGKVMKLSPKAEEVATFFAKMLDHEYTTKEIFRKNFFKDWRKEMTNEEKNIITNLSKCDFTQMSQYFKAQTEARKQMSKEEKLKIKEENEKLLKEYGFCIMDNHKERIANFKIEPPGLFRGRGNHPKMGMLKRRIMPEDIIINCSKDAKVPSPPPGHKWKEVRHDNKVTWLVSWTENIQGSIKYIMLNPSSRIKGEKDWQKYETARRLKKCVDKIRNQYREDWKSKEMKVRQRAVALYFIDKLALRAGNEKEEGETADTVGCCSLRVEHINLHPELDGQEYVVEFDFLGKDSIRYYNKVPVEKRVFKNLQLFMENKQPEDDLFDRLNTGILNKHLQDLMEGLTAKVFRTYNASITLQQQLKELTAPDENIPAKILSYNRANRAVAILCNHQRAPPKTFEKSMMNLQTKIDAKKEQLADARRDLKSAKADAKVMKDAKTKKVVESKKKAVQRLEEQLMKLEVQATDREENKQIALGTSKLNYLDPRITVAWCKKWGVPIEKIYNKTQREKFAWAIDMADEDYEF
Description: Topoisomerase I activity was measured as described below. The procedure for assaying compound-induced, topoisomerase I-mediated single strand breaks in DNA was essentially that described by Hsiang, et al., (J. Biol. Chem. 1985, 260,14873-14878). Samples dissolved in 100% DMSO as either 10 μM or 10 mg/ml solutions, unless otherwise stated, were diluted in Tris-EDTA buffer. Marine bacteriophage PM2 DNA (Boehringer Mannheim) was also diluted in Tris-EDTA buffer to a concentration of 0.02 μg/μl. Different dilutions of compound being evaluated were mixed with diluted DNA and this mixture was added to 1000 unit (one unit of enzyme activity is defined as the amount capable of relaxing 100 ng of supercoiled DNA in approximately 30 minutes at 37° C.) aliquots of purified human topoisomerase I (Topogen) in 2×reaction buffer to start the reaction. The compound—DNA—enzyme mixture was incubated for 30 minutes at 37° C. before stopping the reaction with warm stop buffer containing sodium dodecyl sulfate and proteinase K (Sigma). These mixtures were allowed to incubate at 37° C. for another 10 minutes, at which time the mixtures were removed from the waterbath and extracted with a 24:1 mixture of chloroform/isoamyl alcohol. Following centrifugation, aliquots of the aqueous phases were placed in wells of a 0.9% agarose (SeaKem) gel in Tris-borate buffer containing 0.5 μg/ml of ethidium bromide and subjected to electrophoresis for 15 hours to separate the different topological isomers and nicked and broken DNAs. After destaining the gel in water, the ethidium bromide stained DNA reaction products were visualized by exposing the gel to UV irradiation. Negatives of photographs of the irradiated gels were scanned with a densitometer and areas under the peaks were calculated in order to obtain percent single strand DNA break formation for each sample. A median effective concentration (EC50) was obtained for each compound by interpolation between points of the resulting dose-effect curve which defines the potency of the compound for its effect in inducing topoisomerase I-mediated single strand breaks in DNA. The topoisomerase I activity for selected compounds of the present invention is shown below in Table I.

COC1(C)CC(O)C(O)C(n2c3cc(F)c(F)cc3c3c4c(c5c6cc(F)c(F)cc6sc5c32)C(=O)NC4=O)O1 [Example 12, 2,3,9, 10-Tetrafluoro-12-(4,6-dideoxy-5-methoxy-δ-D-glucopyranosyl)-6,7, 12, 13-tetrahydro(5H)benzo[b]thieno[2,3-a]pyrrolo[3,4-c]carbazole-5,7-dione]
IC50 (murine P388 cell line): 69 nM

CO[C@]1(CO)O[C@@H](n2c3cc(F)c(F)cc3c3c4c(c5c6cc(F)c(F)cc6[nH]c5c32)C(=O)NC4=O)[C@H](O)[C@@H](O)[C@@H]1O [Example 7, 2,3,9, 10-Tetrafluoro-12-(5-methoxy-β-D-glucopyranosyl)-6,7, 12, 13-tetrahydro(5H)indolo[2,3-a]pyrrolo[3,4-c]carbazole-5,7-dione]
EC50 [1]: 270 nM
IC50 (murine P388 cell line): 250 nM

CO[C@@]1(C)C[C@H](O)[C@@H](O)[C@H](n2c3cc(F)c(F)cc3c3c4c(c5c6cc(F)c(F)cc6[nH]c5c32)C(=O)NC4=O)O1 [Example 6, 2 , 3,9, 10-Tetrafluoro-12-(4,6-dideoxy-5-methoxy-β-D-glucopyranosyl) -6,7, 12, 13-tetrahydro(5H)indolo[2,3-a]pyrrolo[3,4-c]carbazole-5,7-dione]
EC50 [1]: 70 nM
IC50 (murine P388 cell line): 50 nM

O=C1NC(=O)c2c1c1c3cc(F)c(F)cc3[nH]c1c1c2c2cc(F)c(F)cc2n1[C@@H]1OC(CO)(CO)C[C@H](O)[C@H]1O [Example 1, 2,3,9, 10-Tetrafluoro-12-[5-C-(hydroxymethyl)-4-deoxy-β-D-glucopyranosyl]-indolo[2,3-a]pyrrolo[3,4-c]carbazole-5,7-dione]
EC50 [1]: 40 nM
IC50 (murine P388 cell line): 35 nM

CO[C@@]1(CO)C[C@H](O)[C@@H](O)[C@H](n2c3cc(F)c(F)cc3c3c4c(c5c6cc(F)c(F)cc6[nH]c5c32)C(=O)NC4=O)O1 [Example 8, 2,3,9, 10-Tetrafluoro-12-(4-deoxy-5-methoxy-β-D-glucopyranosyl) -6,7, 12, 13-tetrahydro(5H)indolo[2,3-a]pyrrolo[3,4-c]carbazole-5,7-dione]
EC50 [1]: 50 nM
IC50 (murine P388 cell line): 35 nM

CC(C)OC1(C)CC(O)C(O)C(n2c3ccc(F)cc3c3c4c(c5c6cc(F)ccc6[nH]c5c32)C(=O)NC4=O)O1 [Example 11, 3,9-Difluoro-12-(4,6-dideoxy-5-isopropoxy-δ-D-glucopyranosyl)-6,7, 12, 13-tetrahydro(5H)indolo[2,3-a]pyrrolo[3,4-c]carbazole-5,7-dione]
IC50 (murine P388 cell line): 200 nM

CO[C@@]1(C)C[C@H](O)[C@@H](O)[C@H](n2c3ccc(F)cc3c3c4c(c5c6cc(F)ccc6[nH]c5c32)C(=O)NC4=O)O1 [Example 9, 3,9-Difluoro-12-(4,6-dideoxy-5-methoxy-β-D-glucopyranosyl)-6,7, 12, 13-tetrahydro(5H)indolo[2,3-a]pyrrolo[3,4-c]carbazole-5,7-dione]
IC50 (murine P388 cell line): 7 nM

CCOC1(C)CC(O)C(O)C(n2c3ccc(F)cc3c3c4c(c5c6cc(F)ccc6[nH]c5c32)C(=O)NC4=O)O1 [Example 10, 3,9-Difluoro-12-(4,6-dideoxy-5-ethoxy-6-D-glucopyranosyl)-6,7, 12, 13-tetrahydro(5H)indolo[2,3-a]pyrrolo[3,4-c]carbazole-5,7-dione]
IC50 (murine P388 cell line): 55 nM
